We go through two compounds from patent publication US10947233B2, “Crystals of azabicyclic compound” (TAIHO PHARMACEUTICAL CO., LTD., priority 2015, dated 2021).

Series [1] in a line: Solid stability test (accelerated test), related substances by HPLC. The series is classed as physicochemical. The procedure:
The solid stability of the Form II crystal obtained in Example 1 after storage of 1, 3 and 6 months at 40° C.±2° C./75% RH±5% RH was measured under the following conditions. • Storage conditions: 40° C.±2° C./75% RH±5% RH • Measurement points: 1, 3 and 6 month • Storage amount: 6 g • Storage container: doubled plastic bags, banding bands+plastic drums • Preparation method of sample solution: 100 mg of the Form II crystal is accurately measured, a mixed solution of acetonitrile-water (4:1) is added to dissolve the crystal (sonicated to dissolve, if difficult to dissolve), and the solution is diluted in measuring cylinder to exact 200 mL total. 10 mL of this solution is accurately measured, and a mixed solution of acetonitrile-water (1:1) is added to exact 20 mL to be used as a sample solution.
HPLC was performed in the following conditions. • Column: general foundation Chemicals Evaluation and Research Institute, Japan L-column2 ODS • Particle size: 3 μm, Inner diameter: 4.6 mm, Length: 15 cm • Measurement wavelength: 220 nm • Mobile phase: Mobile phase A: 10 mmol/L phosphate buffer (pH6.9), • Mobile phase B: acetonitrile • Flow rate: about 1.0 mL/min
The concentration gradient is controlled by changing the mixing ratio of mobile phases A and B as follows, when feeding the liquid.
The amounts of related substances in the sample solutions were measured and evaluated by HPLC, of which result is shown in Table 3.
The related substances are defined as substances detected other than 3-ethyl-4-{3-isopropyl-4-(4-(1-methyl-1H-pyrazol-4-yl)-1H-imidazol-1-yl)-1H-pyrazolo[3,4-b]pyridin-1-yl}benzamide.

The nature of series [2]: Blood concentration measurement test (oral administration to mice). It counts as in vivo, mice (Balb/cA). The following applies: 50 mg/10 mL/kg; for AUC0-24 hr: mice (Balb/cA) under feeding conditions, Compound 1 in plasma, LC-MS/MS. The procedure:
Respective solutions for administration (50 mg/10 mL/kg) of the Form I crystal and Form II crystal were produced. These solutions were administered orally to mice (Balb/cA) bred under feeding conditions at a volume of 10 mL/kg body weight using a sonde for oral administration. After the administration, the mice were returned to cages for mice to inspect their conditions. Water and feed were freely available for the mice in the cages. The mice were anesthetized with isoflurane 1, 2, 3, 4, 8 and 24 hours after the administration and 60 μL of blood was collected from their orbital sinuses using capillary blood collection tubes. The collected blood was cooled on ice and centrifuged to separate plasma.
AUCs0-24 hrwere calculated with a linear-log trapezoid method using Phoenix WinNonlin (v6.3.0), software from Pharsight, from the concentrations of Compound 1 in plasma samples measured with Multiple Reaction Monitoring method using LC-MS/MS.
Therefore, the Form II crystal according to the present invention is remarkably excellent in oral absorbability and useful as an oral pharmaceutical composition.

For the compound `CCc1cc(C(N)=O)ccc1-n1nc(C(C)C)c2c(-n3cnc(-c4cnn(C)c4)c3)ccnc21` [Form II crystal, 3-ethyl-4-{3-isopropyl-4-(4-(1-methyl-1H-pyrazol-4-yl)-1H-imidazol-1-yl)-1H-pyrazolo[3,4-b]pyridin-1-yl}benzamide], the Related substances result in series [1] (storage 1 month at 40° C.±2° C./75% RH±5% RH), in series [1] (storage 3 months at 40° C.±2° C./75% RH±5% RH) and in series [1] (storage 6 months at 40° C.±2° C./75% RH±5% RH) was “less than 0.1%” throughout. Also, the “AUC0-24 hr of the Form II crystal relative to the Form I crystal” value in series [2] (mice (Balb/cA)) is reported as “approximately 3 times”. Moreover, the AUC0-24 hr in series [2] is 171.33 µM·h.
Take `CCc1cc(C(N)=O)ccc1-n1nc(C(C)C)c2c(-n3cnc(-c4cnn(C)c4)c3)ccnc21` [Form I crystal, 3-ethyl-4-{3-isopropyl-4-(4-(1-methyl-1H-pyrazol-4-yl)-1H-imidazol-1-yl)-1H-pyrazolo[3,4-b]pyridin-1-yl}benzamide]: the AUC0-24 hr in series [2] came to 59.64 µM·h.
